Source: US4808711A, “Cephalosporin derivatives” (Sankei Pharmaceutical Co., Ltd., priority 1985, dated 1989)
In brackets after ≈: the same amount, converted by molar mass.

Experiments:
Type in all cases: cell-based
S. aureus TASAKI = test: MIC, S. aureus TASAKI; details: Staphylococcus aureus; S. aureus TASAKI; standard method of Japanese Chemotherapy Association; read-out: MIC
Procedure: (§1) The minimum inhibition concentrations (MIC) of the compounds obtained by the present invention were measured according to the standard method of Japanese Chemotherapy Association.

S. aureus 209P JC-1 = test: MIC, S. aureus 209P JC-1; details: Staphylococcus aureus; S. aureus 209P JC-1; read-out: MIC
Procedure: as §1

S. aureus ATCC25923 = test: MIC, S. aureus ATCC25923; details: Staphylococcus aureus; S. aureus ATCC25923; read-out: MIC
Procedure: as §1

S. aureus Smith = test: MIC, S. aureus Smith; details: Staphylococcus aureus, read-out: MIC
Procedure: as §1

S. epidermidis ATCC14990 = test: MIC, S. epidermidis ATCC14990; details: Staphylococcus epidermidis, read-out: MIC
Procedure: as §1

S. faecalis IFO3826 = test: MIC, S. faecalis IFO3826; details: Enterococcus faecalis, read-out: MIC
Procedure: as §1

B. subtilis ATCC6633 = test: MIC, B. subtilis ATCC6633; details: Bacillus subtilis; B. subtilis ATCC6633; read-out: MIC
Procedure: as §1

S. anatum 677-69 = test: MIC, S. anatum 677-69; details: Salmonella enterica, 67769, read-out: MIC
Procedure: as §1

S. newport 563 = test: MIC, S. newport 563; details: Salmonella enterica, read-out: MIC
Procedure: as §1

S. paratyphi A 144-12-93 = test: MIC, S. paratyphi A 144-12-93; details: Salmonella enterica, PARATYPHI
Procedure: as §1

S. paratyphi B = test: MIC, S. paratyphi B; details: Salmonella enterica, PARATYPHI
Procedure: as §1

S. paratyphi C 33-76 = test: MIC, S. paratyphi C 33-76; details: Salmonella enterica, PARATYPHI
Procedure: as §1

S. typhi 1099-77 = test: MIC, S. typhi 1099-77; details: Salmonella enterica, TYPHI
Procedure: as §1

S. typhimurium ATCC13311 = test: MIC, S. typhimurium ATCC13311; details: Salmonella enterica, read-out: MIC
Procedure: as §1

S. typhimurium IFO 12529 = test: MIC, S. typhimurium IFO 12529; details: Salmonella enterica, read-out: MIC
Procedure: as §1

S. boyadii CDC 2064-59 = test: MIC, S. boyadii CDC 2064-59
Procedure: as §1

S. dysenteriae 4379-60 = test: MIC, S. dysenteriae 4379-60; details: Shigella dysenteriae, 437960
Procedure: as §1

[1] = tested on: S. flexneri 2a CDC 4807-62; test: MIC, S. flexneri 2a CDC 4807-62; details: Shigella flexneri, read-out: MIC
Procedure: as §1

S. flexneri Y NCTC 9730 = test: MIC, S. flexneri Y NCTC 9730; details: Shigella flexneri, NCTC9730, read-out: MIC
Procedure: as §1

S. sonnei SH72-415 = test: MIC, S. sonnei SH72-415; details: Shigella sonnei, SH72415, read-out: MIC
Procedure: as §1

E. coli ATCC25922 = test: MIC, E. coli ATCC25922; details: Escherichia coli, read-out: MIC
Procedure: as §1

E. coli NIHJ JC-2 = test: MIC, E. coli NIHJ JC-2; details: Escherichia coli, NIHJJC2, read-out: MIC
Procedure: as §1

C. freundii IFO12681 = test: MIC, C. freundii IFO12681; details: Citrobacter freundii, read-out: MIC
Procedure: as §1

S. marcescens IFO12648 = test: MIC, S. marcescens IFO12648; details: Serratia marcescens, read-out: MIC
Procedure: as §1

E. cloacae ATCC13047 = test: MIC, E. cloacae ATCC13047; details: Enterobacter cloacae
Procedure: as §1

K. pneumoniae ATCC27736 = test: MIC, K. pneumoniae ATCC27736; details: Klebsiella pneumoniae, read-out: MIC
Procedure: as §1

P. mirabilis IFO3849 = test: MIC, P. mirabilis IFO3849; details: Proteus mirabilis, read-out: MIC
Procedure: as §1

P. rettgeri ATCC14505 = test: MIC, P. rettgeri ATCC14505; details: Providencia rettgeri, read-out: MIC
Procedure: as §1

P. vulgaris ATCC6380 = test: MIC, P. vulgaris ATCC6380; details: Proteus vulgaris, read-out: MIC
Procedure: as §1

P. vulgaris ATCC6398 = test: MIC, P. vulgaris ATCC6398; details: Proteus vulgaris, read-out: MIC
Procedure: as §1

P. aeruginosa ATCC9721 = test: MIC, P. aeruginosa ATCC9721; details: Pseudomonas aeruginosa; P. aeruginosa ATCC9721; read-out: MIC
Procedure: as §1

P. cepacia ATCC25416 = test: MIC, P. cepacia ATCC25416; details: Burkholderia cepacia, read-out: MIC
Procedure: as §1

P. maltophilia ATCC13637 = test: MIC, P. maltophilia ATCC13637; details: Stenotrophomonas maltophilia
Procedure: as §1

P. putida ATCC12633 = test: MIC, P. putida ATCC12633; details: Pseudomonas putida
Procedure: as §1

P. fluorescens ATCC13525 = test: MIC, P. fluorescens ATCC13525; details: Pseudomonas fluorescens, read-out: MIC
Procedure: as §1

E. Coli GN5482 = test: MIC, E. Coli GN5482; details: Escherichia coli
Procedure: as §1

E. cloacae GN7471 = test: MIC, E. cloacae GN7471; details: Enterobacter cloacae
Procedure: as §1

C. freundii GN7391 = test: MIC, C. freundii GN7391; details: Citrobacter freundii
Procedure: as §1

S. marcescens GN10851 = test: MIC, S. marcescens GN10851; details: Serratia marcescens
Procedure: as §1

P. rettgeri GN4430 = test: MIC, P. rettgeri GN4430; details: Providencia rettgeri
Procedure: as §1

P. morganii GN5407 = test: MIC, P. morganii GN5407; details: Morganella morganii
Procedure: as §1

P. vulgaris GN7919 = test: MIC, P. vulgaris GN7919; details: Proteus vulgaris
Procedure: as §1

P. aeruginosa GN10 = test: MIC, P. aeruginosa GN10; details: Pseudomonas aeruginosa
Procedure: as §1

E. coli W3630/Rms212 = test: MIC, E. coli W3630/Rms212; details: Escherichia coli
Procedure: as §1

E. coli W3630/Rms213 = test: MIC, E. coli W3630/Rms213; details: Escherichia coli
Procedure: as §1

E. coli W3630/Rte16 = test: MIC, E. coli W3630/Rte16; details: Escherichia coli
Procedure: as §1

Work on `Cn1nnnc1SCC1=C(C(=O)O)N2C(=O)C(NC(=O)C(=NOCC(=O)NNC(=O)c3ccc(O)c(O)c3)c3csc(N)n3)C2SC1` (stereo not drawn) [Example 62] yielded an MIC (S. aureus TASAKI) of 1.56 µg/mL (≈ 2.21 µM), an MIC (S. aureus 209P JC-1) of 0.39 µg/mL (≈ 0.553 µM) and an MIC (S. aureus ATCC25923) of 0.39 µg/mL (≈ 0.553 µM). For the same compound, the MIC (S. aureus Smith) was 3.13 µg/mL (≈ 4.44 µM), the MIC (S. epidermidis ATCC14990) was 0.39 µg/mL (≈ 0.553 µM) and the MIC (S. faecalis IFO3826) was greater than 100 µg/mL. It also gave an MIC (B. subtilis ATCC6633) of 0.39 µg/mL (≈ 0.553 µM), an MIC (S. anatum 677-69) of 0.025 µg/mL (≈ 0.0354 µM) and an MIC (S. newport 563) of 0.05 µg/mL (≈ 0.0708 µM). It also gave an MIC (S. paratyphi A 144-12-93) of 0.025 µg/mL (≈ 0.0354 µM), an MIC (S. paratyphi B) of 0.012 µg/mL (≈ 0.017 µM) and an MIC (S. paratyphi C 33-76) of 0.012 µg/mL (≈ 0.017 µM). The MIC (S. typhi 1099-77) was no more than 0.006 µg/mL, the MIC (S. typhimurium ATCC13311) was 0.025 µg/mL (≈ 0.0354 µM) and the MIC (S. typhimurium IFO 12529) was 0.05 µg/mL (≈ 0.0708 µM). For the same compound, the MIC (S. boyadii CDC 2064-59) was 0.39 µg/mL (≈ 0.553 µM), the MIC (S. dysenteriae 4379-60) was 0.025 µg/mL (≈ 0.0354 µM) and the MIC [1] was 0.1 µg/mL (≈ 0.142 µM). The MIC (S. flexneri Y NCTC 9730) was 0.78 µg/mL (≈ 1.11 µM), the MIC (S. sonnei SH72-415) was 0.05 µg/mL (≈ 0.0708 µM) and the MIC (E. coli ATCC25922) was 0.2 µg/mL (≈ 0.283 µM). The MIC (E. coli NIHJ JC-2) was 0.78 µg/mL (≈ 1.11 µM), the MIC (C. freundii IFO12681) was 0.39 µg/mL (≈ 0.553 µM) and the MIC (S. marcescens IFO12648) was 0.39 µg/mL (≈ 0.553 µM). It also gave an MIC (E. cloacae ATCC13047) of 3.13 µg/mL (≈ 4.44 µM), an MIC (K. pneumoniae ATCC27736) of 0.012 µg/mL (≈ 0.017 µM) and an MIC (P. mirabilis IFO3849) of 0.39 µg/mL (≈ 0.553 µM). The MIC (P. rettgeri ATCC14505) was 1.56 µg/mL (≈ 2.21 µM), the MIC (P. vulgaris ATCC6380) was 0.39 µg/mL (≈ 0.553 µM) and the MIC (P. vulgaris ATCC6398) was 0.05 µg/mL (≈ 0.0708 µM). The MIC (P. aeruginosa ATCC9721) was 0.1 µg/mL (≈ 0.142 µM), the MIC (P. cepacia ATCC25416) was 0.78 µg/mL (≈ 1.11 µM) and the MIC (P. maltophilia ATCC13637) was 1.56 µg/mL (≈ 2.21 µM). For the same compound, the MIC (P. putida ATCC12633) was 1.56 µg/mL (≈ 2.21 µM) and the MIC (P. fluorescens ATCC13525) was 12.5 µg/mL (≈ 17.7 µM).

`CC(=NNC(=O)NC(C(=O)NC1C(=O)N2C(C(=O)O)=C(CSc3nncs3)CSC12)c1csc(N)n1)c1cccc(O)c1` (stereo not drawn) [Example 104] gave an MIC (E. Coli GN5482) of 0.78 µg/mL (≈ 1.18 µM), an MIC (E. cloacae GN7471) of 3.13 µg/mL (≈ 4.73 µM) and an MIC (C. freundii GN7391) of 100 µg/mL (≈ 151 µM). For the same compound, the MIC (S. marcescens GN10851) was 100 µg/mL (≈ 151 µM), the MIC (P. rettgeri GN4430) was 0.2 µg/mL (≈ 0.302 µM) and the MIC (P. morganii GN5407) was 0.39 µg/mL (≈ 0.589 µM). For the same compound, the MIC (P. vulgaris GN7919) was 50 µg/mL (≈ 75.6 µM), the MIC (P. aeruginosa GN10) was 6.25 µg/mL (≈ 9.44 µM) and the MIC (E. coli W3630/Rms212) was 0.39 µg/mL (≈ 0.589 µM). It also gave an MIC (E. coli W3630/Rms213) of 0.1 µg/mL (≈ 0.151 µM) and an MIC (E. coli W3630/Rte16) of 0.2 µg/mL (≈ 0.302 µM).

With `CC(=O)Oc1cc(OC(C)=O)cc(C(=O)NNC(=O)NC(C(=O)NC2C(=O)N3C(C(=O)O)=C(CSc4nncs4)CSC23)c2csc(N)n2)c1` (stereo not drawn) [Example 118] the MIC (E. Coli GN5482) was 1.56 µg/mL (≈ 2.04 µM), the MIC (E. cloacae GN7471) was 6.25 µg/mL (≈ 8.18 µM) and the MIC (C. freundii GN7391) was greater than 100 µg/mL. For the same compound, the MIC (S. marcescens GN10851) was 100 µg/mL (≈ 131 µM), the MIC (P. rettgeri GN4430) was 0.39 µg/mL (≈ 0.511 µM) and the MIC (P. morganii GN5407) was 0.78 µg/mL (≈ 1.02 µM). It also gave an MIC (P. vulgaris GN7919) of 100 µg/mL (≈ 131 µM), an MIC (P. aeruginosa GN10) of 6.25 µg/mL (≈ 8.18 µM) and an MIC (E. coli W3630/Rms212) of 0.39 µg/mL (≈ 0.511 µM). For the same compound, the MIC (E. coli W3630/Rms213) was 0.2 µg/mL (≈ 0.262 µM) and the MIC (E. coli W3630/Rte16) was 0.39 µg/mL (≈ 0.511 µM).
